One assay has as its target PRMT1 (Homo sapiens, UniProt Q99873). The assay can be described thus: PRMT1 enzyme activity test. The following applies: 0.5 nM PRMT1, 3H-SAM, peptide. Type of assay: biochemical. As for the experimental part:
PRMT1 enzyme activity test were performed in a buffer prepared on the same day 5 consisting of 10 mMTirs-HCl (pH=8.0), 0.01% Tween-20 and 1 mM DTT. The compounds were prepared to the highest inhibitor concentration ultimately required in the 100× reaction with 100% DMSO and then transferred to one well of a 384-well Echo plate (Echo-eligible 384-well polypropylene microplates 2.0, transparent, flat-bottomed) and sequentially diluted in the next well with a 3-fold dilution of 100% DMSO, and so on, with a total of 10 concentrations based on Precision. 100% DMSO was added to two empty wells to serve as control well without compound and control well without enzyme in the same 384-well Echo plate. 250 nL of compound was transferred from each well of the 384-well Echo plate to a 384-well assay plate (384-well polypropylene storage microplate) via the Echo 550 liquid processor. For wells with compounds and control well without compound, a mixture (15 uL) containing PRMT1 enzyme was added to the 384-well assay plate. For control wells without enzyme, the mixture containing the assay buffer (15 uL) was added instead. The compounds were allowed to incubate with PRMT1 for 15 minutes at room temperature, and then a mixture containing ^3H-SAM and peptide (10 uL) was added to start the reaction (final volume=25 uL). The final concentrations of the components were as follows: 0.5 nM for PRMT1, 0.25 uM for ^3H-SAM, 0.1 uM for the peptide, and 1% DMSO. After 120 min of incubation, the assay was terminated by the addition of non-radiolabeled SAM (5 uL) to a final concentration of 125 uM, which diluted 3H-SAM to a level at which its incorporation into the peptide substrate was no longer detected. 25 μL of the reaction solution from the 384-well assay plate was then transferred to a 384-well detection plate (Streptavidin FlashPlate HTS PLUS, high volume, 384 wells). The biotinylated peptide was allowed to bind to the surface of the antibiotic protein streptavidin for at least 60 minutes at room temperature. The Flashplate was then washed three times with 0.1% Tween-20 in a BioTek plate washer. Plates were read on a microplate counter (MicroBeta2) to measure the amount of ^3H-labeled peptide bound to the surface of the detection plate, measured in counts per minute (cpm).
The raw data were copied from the Reader and the inhibition values were calculated in Excel by Equation (1), Equation (1): Inh %=(CPMmax−CPMcmpd)/(CPMmax−CPMmin)*100, wherein the Max signal was obtained from the enzyme-substrate interaction and the Min signal was obtained from the substrate. IC50 values were obtained by fitting the data through equation (2) using XLFit add-in for Excel version […]. Equation (2): Y=Bottom+(Top-Bottom)/(1+((IC50/X)[…])), wherein, Y represents inhibition percentage and X represents compound concentration.

In the next assay the test system is Toledo cells. The experiment in a line: Toledo cell proliferation inhibition assay. It is filed as cell-based. The settings on record: six-day assay, CellTiter-Glo. As for the experimental part:
• A. Purpose: to determine the effects of compounds on Toledo cells through a six-day cell proliferation assay. • B. Reagents and materials: • 1. Cell culture medium: RPMI 1640+10% FBS • 2. 384-well cell culture plate (Corning, item #3764) • 3. 0.4% Taipan Blue Staining Solution (Thermo Fisher, item #T10282) • 4. cell counting plate (Thermo Fisher, item #C10228) • 5. 50 ml reagent reservoir (Corning, item #4870) • 6. 50 ml conical sterile polypropylene centrifuge tube (Thermo Fisher, item #339653) • 7. Automatic cell counter (Thermo Fisher, item #AMQAX1000) • 8. CellTiter-Glo Luminescent Cell Viability Detection Reagent (Promega, item #G7572) • 9. SpectraMax i3x Multi-Mode Enzyme Labeling Instrument (Megaman Molecular Instruments, item #5024062) • C. Experimental method • 1. Resuspending the cells with a pipette. • 2. 0.4% Taipan blue staining solution and Toledo cells were mixed in equal proportion, and the cells were counted using an automatic cell counter. • 3. Toledo cells were diluted to a final concentration of 2000 cells per well and transferred to a 50 ml reagent reservoir. • 4. Diluted Toledo cells were added to a 384-well cell culture plate, 40 ul per well. • 5. The cells were shortly centrifuged and settled. • 6. The cells were incubated in a 37° C., 5% CO2 cell culture incubator. • 7. The substrate in the CellTiter-Glo Luminescent Cell Viability Detection Reagent was mixed with the solution. • 8. After six days, the 384-well cell culture plate was taken from the incubator and 20 ul of configured CellTiter-Glo reagent was added to each well. • 9. 384-well cell culture platewasmixed in an orbital shaker for 30 minutes. • 10. Signal of luminescence was detected with a SpectraMax i3x multi-mode enzyme labeling instrument.
Background: ATP-based viability assays read luminescence as a measure of living cells.

One may read the IC50 as the concentration at which inhibition is half-maximal. Higher therefore signals weaker potency.

PRMT1, sequence (Q99873 whole entry): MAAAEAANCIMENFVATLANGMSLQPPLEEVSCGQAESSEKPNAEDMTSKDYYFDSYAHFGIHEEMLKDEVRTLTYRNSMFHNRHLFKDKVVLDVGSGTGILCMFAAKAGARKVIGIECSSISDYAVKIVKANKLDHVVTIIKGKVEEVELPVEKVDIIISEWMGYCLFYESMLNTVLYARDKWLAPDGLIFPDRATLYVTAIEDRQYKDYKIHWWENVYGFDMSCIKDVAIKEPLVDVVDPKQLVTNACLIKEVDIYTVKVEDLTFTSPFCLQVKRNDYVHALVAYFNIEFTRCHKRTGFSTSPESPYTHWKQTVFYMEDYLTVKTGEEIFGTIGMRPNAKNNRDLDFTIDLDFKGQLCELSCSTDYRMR

As to `CNCCN(C)Cc1nc(C)ccc1C1CCc2cc(F)c(F)cc2CC1` [P036], the half-inhibitory concentration (IC50) against PRMT1 is under 50 nM; in the assay with Toledo cells (Homo sapiens, Toledo, 144 h), under 1000 nM.
For `CNCCN(C)Cc1ccc(C)nc1C1CCc2cc(F)c(F)cc2CC1` [P038], in that order: under 50 nM and under 1000 nM.
For the compound `CNCCN(C)Cc1ccccc1C1CCC2(CC1)CC(C)(C)CO2` (centres unmarked) [P040], the figures for the IC50 against PRMT1 and in the assay with Toledo cells were under 50 nM and under 1000 nM, respectively.
For the compound `CNCCN(C)Cc1ccccc1C1=CCC2(CC1)CC(C)(C)CO2` (centres unmarked) [P042], the 50% inhibitory concentration (IC50) is under 50 nM at PRMT1 and under 1000 nM with Toledo cells (Homo sapiens, Toledo, 144 h).
For `CNCCN(C)Cc1nc2ccccc2cc1C1CCN(c2cccc(C)c2)CC1` [P046], in that order: under 50 nM and 1000 to 5000 nM.
Taken in the same sequence, the figures for `CNCCN(C)Cc1ccc2ncccc2c1C1=CCN(c2cccc(C)c2)CC1` [P047] were under 50 nM and 1000 to 5000 nM.
Taken in the same sequence, the figures for `CCOC[C@H]1CC[C@@H](c2ccccc2CN(C)CCNC)CC1` [P048] were under 50 nM and under 1000 nM.
Regarding `CNCCN(C)Cc1ccccc1C1=CCC2(CCCCO2)CC1` (centres unmarked) [P055], the IC50 was under 50 nM on PRMT1 and 1000 to 5000 nM with Toledo cells (Homo sapiens, Toledo, 144 h).
`CNCCN(C)Cc1ccc(C)nc1C1CCN(c2cc(C)cc(Cl)c2)CC1` [P058]: the concentration for half-maximal inhibition (IC50) against PRMT1 was under 50 nM; with Toledo cells (Homo sapiens, Toledo, 144 h) it was under 1000 nM.
Taken in the same sequence, the figures for `CNCCN(C)Cc1nc(C)ccc1C1CCN(CCc2ccccc2)CC1` [P059] were under 50 nM and 1000 to 5000 nM.
Consider `CNCCN(C)Cc1ccccc1C1=CCC(OC(C)C)CC1` (centres unmarked) [P060], for which the IC50 was under 50 nM against PRMT1 and under 1000 nM in the assay with Toledo cells (Homo sapiens, Toledo, 144 h).
As for `CNCCN(C)Cc1ccc(C)nc1C1CCN(c2cccc(C(F)F)c2)CC1` [P061], the half-inhibitory concentration (IC50) against PRMT1 was under 50 nM; in the assay on Toledo cells (Homo sapiens, Toledo, 144 h), under 1000 nM.
For the compound `CNCCN(C)Cc1ccc(C)nc1C1CCN(c2cc(C)cc(C)c2)CC1` [P063], the IC50 on PRMT1 was under 50 nM; in the assay on Toledo cells (Homo sapiens, Toledo, 144 h) it was under 1000 nM.
Taken in the same sequence, the figures for `CNCCN(C)Cc1ccc(C)nc1C1CCN(c2ccc(F)c(Cl)c2)CC1` [P064] were under 50 nM and under 1000 nM.
Taken in the same sequence, the figures for `CNCCN(C)Cc1ccc(C)nc1C1CCN(c2ccc(F)c(C)c2)CC1` [P065] were under 50 nM and under 1000 nM.
Taken in the same sequence, the figures for `CNCCN(C)Cc1ccc(C)nc1C1CCN(c2cc(C)cc(F)c2)CC1` [P066] were under 50 nM and under 1000 nM.
With `CNCCN(C)Cc1ccc(C)nc1C1CCN(c2cc(C)ccc2F)CC1` [P067], the IC50 at PRMT1 was under 50 nM; in the assay on Toledo cells (Homo sapiens, Toledo, 144 h), under 1000 nM.
`CNCCN(C)Cc1ncccc1C1CCN(c2cccc(C(F)(F)F)c2)CC1` [P068]: the 50% inhibitory concentration (IC50) against PRMT1 is under 50 nM; in the assay on Toledo cells (Homo sapiens, Toledo, 144 h), 1000 to 5000 nM.
Taken in the same sequence, the figures for `CNCCN(C)Cc1ccc(C(C)N)cc1C1CCc2cc(F)c(F)cc2CC1` (centres unmarked) [P070] were under 50 nM and under 1000 nM.
For `CNCCN(C)Cc1ncccc1C1CCN(c2cccc(CN3CCCC3)c2)CC1` [P071], in that order: under 50 nM and 1000 to 5000 nM.
For `CNCCN(C)Cc1ccc(Cl)nc1C1CCN(c2cccc(C)c2)CC1` [P072], in that order: under 50 nM and under 1000 nM.
As for `CNCCN(C)Cc1ccc(C)nc1C1CCN(c2cccc(Cl)c2)CC1` [P073], the IC50 against PRMT1 is under 50 nM; in the assay with Toledo cells (Homo sapiens, Toledo, 144 h), under 1000 nM.
Taken in the same sequence, the figures for `CNCCN(C)Cc1ccc(F)cc1C1CCN(c2cccc(C(C)(C)O)c2)CC1` [P076] were under 50 nM and 1000 to 5000 nM.
For `CNCCN(C)Cc1ncccc1C1CCN(Cc2cccc(C)c2)CC1` [P077], in that order: under 50 nM and 1000 to 5000 nM.
Taken in the same sequence, the figures for `CNCCN(C)Cc1ncccc1C1CCN(c2cc(C)cc(CN(C)C)c2)CC1` [P082] were under 50 nM and 1000 to 5000 nM.
Consider `CNCCN(C)Cc1ccc(C)nc1C1CCN(c2ccc(F)cc2)CC1` [P086], for which the half-maximal inhibitory concentration (IC50) against PRMT1 was under 50 nM; in the assay on Toledo cells (Homo sapiens, Toledo, 144 h), 1000 to 5000 nM.
`CNCCN(C)Cc1ccc(F)cc1C1CCN(C(=O)Cc2ccccc2)CC1` [P087]: the concentration for half-maximal inhibition (IC50) on PRMT1 is under 50 nM; in the assay on Toledo cells (Homo sapiens, Toledo, 144 h) it was 1000 to 5000 nM.
With `CNCCN(C)Cc1ncccc1C1CCN(Cc2ccccc2)CC1` [P090], the IC50 was under 50 nM against PRMT1 and under 1000 nM in the assay on Toledo cells (Homo sapiens, Toledo, 144 h).
As for `CNCCN(C)Cc1ncccc1C1CCN(c2cccc(CN(C)C)c2)CC1` [P092], the concentration for half-maximal inhibition (IC50) is under 50 nM against PRMT1 and under 1000 nM with Toledo cells (Homo sapiens, Toledo, 144 h).
For `CNCCN(C)Cc1nc(C)ccc1N1CCc2cc(F)c(F)cc2CC1` [P093], in that order: under 50 nM and under 1000 nM.
Taken in the same sequence, the figures for `CNCCN(C)Cc1ncccc1C1CCN(c2ccc(C)cc2)CC1` [P096] were under 50 nM and 1000 to 5000 nM.
Taken in the same sequence, the figures for `CNCCN(C)Cc1ccncc1C1CCN(c2cccc(C)c2)CC1` [P097] were under 50 nM and 1000 to 5000 nM.
Turning to `CNCCN(C)Cc1ccc(N(C)C)nc1C1CCN(c2cccc(C)c2)CC1` [P098], the half-inhibitory concentration (IC50) was under 50 nM at PRMT1 and under 1000 nM in the assay on Toledo cells (Homo sapiens, Toledo, 144 h).
With `CNCCN(C)Cc1ccc(C)nc1C1CCN(c2cccc(N(C)C)c2)CC1` [P099], the IC50 on PRMT1 was under 50 nM; in the assay with Toledo cells (Homo sapiens, Toledo, 144 h), 1000 to 5000 nM.
Taken in the same sequence, the figures for `CNCCN(C)Cc1cc(C(=O)N(C)C)ccc1C1CCN(c2cccc(C)c2)CC1` [P100] were at least 500 nM and at least 5000 nM.
For `CNCCN(C)Cc1ccc(C(=O)N(C)C)cc1C1CCN(c2cccc(C)c2)CC1` [P101], in that order: 50 to 500 nM and 1000 to 5000 nM.
Taken in the same sequence, the figures for `CNCCN(C)Cc1ncccc1C1CCN(c2cccc(F)c2)CC1` [P102] were under 50 nM and under 1000 nM.
As for `CNCCN(C)Cc1ccc2nn(C)cc2c1C1CCc2cc(F)c(F)cc2CC1` [P104], the IC50 at PRMT1 was under 50 nM; with Toledo cells (Homo sapiens, Toledo, 144 h), under 1000 nM.
As for `CNCCN(C)Cc1ccc(C(C)N)cc1C1CCN(c2cccc(C)c2)CC1` (centres unmarked) [P105], the IC50 was under 50 nM against PRMT1 and under 1000 nM in the assay on Toledo cells (Homo sapiens, Toledo, 144 h).
For `CNCCN(C)Cc1ncccc1C1CCN(c2ccccc2)CC1` [P108], in that order: under 50 nM and under 1000 nM.
In the case of `CNCCN(C)Cc1nc(C)ccc1N1CCc2ccccc2CC1` [P109], the IC50 is under 50 nM against PRMT1 and under 1000 nM in the assay on Toledo cells (Homo sapiens, Toledo, 144 h).
For `CNCCN(C)Cc1ccc(C)nc1N1CCc2ccccc2CC1` [P110, N1-((2-(4,5-dihydro-1H-benzo[d]azepin-3(2H)-yl)-6-methylpyridin-3-yl)methyl)-N1,N2-dimethylethane-1,2-diamine], in that order: under 50 nM and under 1000 nM.
Taken in the same sequence, the figures for `CCOCC1(COCC)CC=C(c2c(C)cccc2CN(C)CCNC)CC1` [P111] were under 50 nM and under 1000 nM.
For `CNCCN(C)Cc1ncccc1C1CCN(CC(C)C)CC1` [P113], in that order: under 50 nM and under 1000 nM.
As to `CNCCN(C)Cc1ccc(C)nc1N1CCN(c2cccc(C)c2)CC1` [P116], the IC50 is under 50 nM on PRMT1 and 1000 to 5000 nM in the assay with Toledo cells (Homo sapiens, Toledo, 144 h).
Taken in the same sequence, the figures for `CCOCC1(COCC)CC=C(c2ccccc2CN(C)CCNC)CC1` [P117] were under 50 nM and under 1000 nM.

The record behind these values is patent publication US20240307409A1, “ARGININE METHYLTRANSFERASE INHIBITOR AND USE THEREOF” (Cytosinlab Therapeutics Co., Ltd., priority 2021, published 2024).
